Experimental data published in a melting point compilation (Tetko et al.; mined from patent text by program, amines drawn as free bases though some values may be those of a salt).

Compared with `CCCc1nc2ccccc2c(=O)n1Cc1ccc(-c2ccccc2-c2nnn[nH]2)cc1`, `Cc1c(-c2ccc(C(F)(F)F)cc2)n(Cc2ccc(OCCBr)cc2)c2ccc(OCc3ccccc3)cc12` is lower in melting point: 171 to 172 °C for the first, 106 to 109 °C for the second.

First: C[C@@H](NC(=O)c1sc(-c2ccc(C#N)cc2)nc1C(F)(F)F)[C@](O)(Cn1cncn1)c1ccc(F)cc1F
Second: Cc1cc(C)c(S(=O)(=O)NCC(O)(Cn2cncn2)c2ccc(Cl)cc2Cl)c(C)c1 (stereo unspecified)
The melting point of the first is lower: 101 to 108 °C for the first, 171 to 172 °C for the second.

First: CC1(C)C2CC[C@@]1(N1CCOCC1)[C@H](O)C2
Second: CC(=O)N1C(C)(C)CC(N2CCCCCC2=O)CC1(C)C
The melting point of the first is lower: 35 to 36 °C for the first, 104 to 108 °C for the second.

Compared with `COc1ccc2c(Cc3c(Cl)cncc3Cl)nnc(-c3nccs3)c2c1`, `CONC(=O)Cc1c(C)n(C(=O)c2ccc(Cl)cc2)c2ccc(OC)cc12` is lower in melting point: 225 to 230 °C for the first, 184 to 185 °C for the second.

Compared with `O=C(O)c1cc(=O)n(Cc2ccc(S(=O)(=O)O)cc2S(=O)(=O)O)[nH]1`, `COc1ccc(C(=O)NCc2ccc(Br)cc2F)c(OCC(=O)O)c1` is lower in melting point: greater than 300 °C for the first, 203 to 204 °C for the second.

First: Ic1ccc(Cc2ccc(I)cc2)cc1
Second: CC(=O)Nc1ccc(S(=O)c2ccc(Br)cc2)cc1 (stereo unspecified)
The melting point of the first is lower: 160 to 164 °C for the first, 190 to 191 °C for the second.

Compared with `FC(F)(F)c1ccc(Nc2nnc(Cc3ccncc3)c3ccccc23)cc1`, `Nc1ccc(CCC(=O)Nc2ccc(C(=O)c3ccccc3)cc2)cc1[N+](=O)[O-]` is lower in melting point: 205 to 206 °C for the first, 72 to 73 °C for the second.

First: Cc1nc(=O)[nH]c2cc(N(C)C)ccc12
Second: COC(=O)C(=Cc1c[nH]c2cc(Cl)ccc12)NC(C)=O
The melting point of the first is higher: greater than 300 °C for the first, 202 to 203 °C for the second.

Compared with `CCOC(=O)C(NC(=O)OC(C)(C)C)C(c1ccc(O)cc1)S(=O)(=O)C(F)(F)F` (stereo unspecified), `COc1ccc(C(=O)c2cc(Br)ccc2NC(=O)C(F)(F)F)cc1` is higher in melting point: 47 to 49 °C for the first, 149 °C for the second.

Compared with `COc1cc(F)c(C(=O)Nc2c(Cl)cncc2Cl)cc1OC1CCCC1`, `CCOC(=O)Nc1cc2c(c(N)n1)N=C(c1ccccc1)[C@@H](C)N2` is higher in melting point: 143 to 144 °C for the first, 148 to 151 °C for the second.

Compared with `CC1CSc2c(-c3ccccc3)c3ccccc3c(=O)n21` (stereo unspecified), `Cc1nc(-c2cccc(CNc3ccccc3)c2)no1` is lower in melting point: 204 to 208 °C for the first, 75 to 76 °C for the second.

First: CN1[C@@H](c2ccc(O)cc2)c2ccccc2S1(=O)=O
Second: CN1C(C(=O)Nc2ccccn2)=C(O)c2sc3ccccc3c2S1(=O)=O
The melting point of the first is lower: 178 to 180 °C for the first, 222 to 224 °C for the second.

First: O=C(NCCC(F)=C(F)F)C(=O)NCCC(F)=C(F)F
Second: O=CCCNC(=O)CN1CCN(CC(=O)O)CCN(CC(=O)O)CCN(CC(=O)O)CC1
The melting point of the first is higher: 139 to 141 °C for the first, 115 to 120 °C for the second.

First: CCc1noc(-c2cc3c(cn2)[nH]c2cccc(Oc4ccc(Cl)cn4)c23)n1
Second: COc1ccc(-c2cccc3c2C2(COc4cc5c(cc42)OCO5)C(=O)N3Cc2ccc(C(F)(F)F)o2)cn1 (stereo unspecified)
The melting point of the first is higher: 259 to 260 °C for the first, 174 to 176 °C for the second.

First: CCCn1nnn(-c2cc(OS(C)(=O)=O)c(Cl)cc2Cl)c1=O
Second: C=Cc1ccc(OS(C)(=O)=O)cc1
The melting point of the first is higher: 64 to 65 °C for the first, 57 to 58 °C for the second.

First: CC(=O)NC(=S)N1CCSC1c1ccccc1OCCN1CC=C(c2cccc(F)c2)CC1 (stereo unspecified)
Second: Fc1cc2c(c3cccnc13)OC(CN1CC=C(c3c[nH]c4ccccc34)CC1)CO2 (stereo unspecified)
The melting point of the first is lower: 135 to 136 °C for the first, 215 °C for the second.

First: CC(C)(C)COc1ccc(N)cc1C#N
Second: Nc1ccc2nc(N)sc2c1
The melting point of the first is lower: 55 to 56 °C for the first, 202 to 203 °C for the second.

Compared with `COc1ccc2c(c1)CCCC2n1cc[nH]c1=S` (stereo unspecified), `O=c1[nH]c(=S)c2[nH]cnc2n1Cc1ccc(Cl)cc1` is higher in melting point: 190 to 192 °C for the first, 274 to 278 °C for the second.

Compared with `CCCOc1ccc(-c2scc(-c3ccccc3Cl)c2CC(=O)OC)cc1`, `Cc1[nH]c(-c2ccc(F)cc2)c(N)c1C(=O)c1ccccc1` is higher in melting point: 81 to 82 °C for the first, 209 to 210 °C for the second.

First: CC(=O)NNc1nc(C(F)(F)F)nc(-c2ccc(S(C)(=O)=O)cc2)c1-c1ccccc1
Second: CC1=C(O)C(=O)c2ccccc2C1=O
The melting point of the first is higher: 265 to 268 °C for the first, 173 to 174 °C for the second.

Compared with `O=C(c1c(F)cccc1F)N1CNCN(c2ccc(Cl)cc2)C1=O`, `O=C(Nc1cccnn1)N1CCN(c2ccnc(-c3ccc(F)cc3F)c2)CC1` is higher in melting point: 167 to 168 °C for the first, 189 to 190 °C for the second.

Compared with `CS(=O)(=O)Nc1c([N+](=O)[O-])cnn1-c1c(F)c(F)c(C(F)(F)F)c(F)c1F`, `C=C(C)COc1ccc(Br)cc1CN(CC)c1ccc(C(=O)NS(=O)(=O)c2c(C)noc2C)nn1` is lower in melting point: 163 to 168 °C for the first, 120 °C for the second.

First: COc1cc(C(=O)c2nc(C(=O)O)c3ccccn23)ccc1N
Second: CCOC(=O)C1=C(C)NC(C)=C(C(=O)OCC)C1c1ccccc1/C=C/C#N
The melting point of the first is higher: 226 °C for the first, 172 to 173 °C for the second.

First: CNc1nn(C)c2nc3n(c(=O)c12)CCS3
Second: O=CNc1ccccc1CNC1CCC(=O)NC1=O (stereo unspecified)
The melting point of the first is higher: 255 to 256 °C for the first, 169 to 174 °C for the second.

First: ClCc1cn2cc(Cl)ccc2n1
Second: CCCCCCC(=O)C=Cc1ccc(O)c(O)c1
The melting point of the first is higher: 123 to 124 °C for the first, 114 to 115 °C for the second.

`CC(N)(C(N)=O)C(F)F` (stereo unspecified) gave a melting point of 77 to 80 °C.
